In US20040132188A1, “Use of non-complexing peptides for the preparation of a composition for transfection of a polynucleotide into a cell and compositions useful in gene therapy” (priority 2001, published 2004):
“Also recorded” adds a separate entry of the source. Ends that are not written are not given here.

Tests used:
plasmid pTG11236 = assay: Gel retardation assay (DNA binding activity)
Description: 3 μg of the plasmid pTG11236 were incubated with increasing amounts of the respective peptide in a final volume of 30 μl with 0.9% NaCl. After 20 min of incubation at room temperature, 6 μl 5× loading buffer (glycerol and bromphenol blue in TAE buffer) were added and 10 μl of these solutions were analyzed on a 1% agarose gel in the presence of ethidium bromide.
The ability of ppTG1 peptide to complex DNA was analyzed by gel retardation assays. […] After 20 minutes incubation at room temperature, loading buffer was added and 10 μl of the resulting solution were analyzed on a 1% agarose gel.
ppTG1 derivatives as they are indicated in Materials and Methods, were tested for their capacity to bind plasmid DNA by gel retardation assays.

[1] = Liposome leakage assay, calcein-containing POPC liposomes; assay type: biochemical
Description: (§1) Leakage activity was plotted against peptide concentration.
The peptide ppTG1 was tested for its capacity to cause membrane disruption in a liposome leakage assay with POPC liposomes containing the fluorescent product calcein. […] Release of calcein by Triton X-100 treatment was taken as positive control reaction, incubation with water served as negative control. The membranolytic activity of peptide ppTG1 (20 μg as starting point) was compared with those of equal quantities (20 μg) of JTS-1, JTS-1-K13 and KALA.

[2] = Liposome leakage assay, POPC/cholesterol 3:2 liposomes; assay type: biochemical
From the text: FIG. 9: Liposome leakage assay. […] Emitted fluorescence was plotted against peptide concentration. […] C) Comparison of ppTG1, ppTG20 and ppTG21 at pH 7.
as §1

HeLa cells = assay: Transfection in vitro, luciferase plasmid pTG11236; assay type: cell-based
Description: Cells were plated on 24 well plates at a density of 4×10^4 (293-EBNA ) or 7×10^4 (HeLa, Renca) cells/well in DMEM supplemented with 10% FCS. The next day, the medium was replaced by 200 μl serum-free DMEM and plasmid (PTG11056 or pTG11236)/peptide complexes or plasmid/peptide/lipid complexes were prepared in 30 μl 0.9% NaCl or 5% glucose. After 20 min at room temperature these complexes were added to the cells which were then incubated for 2-3 h at 37° C. and 5% CO2 before 1 ml serum-containing DMEM was added. Approximately 20 hours later, cells were lysed by addition of 100 μl 1× Promega lysis buffer, 20 μl of the lysates were analysed for luciferase activity. Proteins were quantified with the bicinchonic acid (BCA) colorimetric method (Smith, Anal. Biochem. 150 (1985), 76-85). […]
HeLa cells were seeded at a density of 6×10^4 cells on 24 well plates. The next day, cells were incubated with 200 μl serum-free medium, 30 μl of plasmid (50 ng)/peptide/lipid mixtures were added and incubated for 3 h at 37° C. in 5% CO2. 1 ml of DMEM+10% FCS was then added. The next day, the medium was removed and cells were washed with 500 μl of PBS and subsequently treated with 100 μl of Promega lysis buffer. Plates were stored at −80° C. until luciferase activity was measured of 20 μl of the cell lysate. The protein assay was performed using the Pierce BCA kit.
JTS1 was dissolved to 1 mg/ml in 1 mM NaOH and mixed with DNA diluted in 5% glucose. ppTG1 was then added to this solution. The pcTG90/DOPE ppTG1 mixtures were prepared as described in Example 6. Transfection assays were performed on HeLa cells with 50 ng of plasmid as described in Example 6.
The series of ppTG1 derivatives listed in Material and Methods were tested for their gene transfer efficiencies in Hela cells. 6×10^4 cells were transfected with 50 ng pTG11236 complexed with increasing amounts of peptide. Luciferase activity was analyzed day 1 after transfection. The results are shown in FIG. 10B (ppTG20, ppTG21), FIG. 10C (ppTG25, ppTG26, ppTG27), FIG. 10D (ppTG28 to ppTG33), FIG. 10E (PEG-ppTG1 and PEG-ppTG20), FIG. 10F (ppTG22 to ppTG24) and FIG. 10G (ppTG20-D).

CHO cells = assay: Transfection in vitro, luciferase plasmid pTG11236; assay type: cell-based
Description: A comparison of ppTG1 and KALA was carried out in HeLa and CHO cells. 5×10^4 cells were seeded on 24 well plates. The next day, cells were transfected with 500 ng and 50 ng of pTG11236, complexed with ppTG1 or KALA in 30μl 0.9% NaCl. The charge ratio±varied from 1, 2, 3, 4, 7 to 10. Cells were harvested 20 h after transfection and lysis was obtained in 100 μl Promega lysis buffer. Luciferase activity and total protein concentrations in 20 μl were determined.

B6SJL mice, lungs [3] = assay: In vivo gene transfer after intravenous injection, luciferase activity in the lungs
Description: Mice were sacrificed at day 1.
Lungs were tested for luciferase activity.

[4] = Liposome leakage assay, POPC/cholesterol 3:2 liposomes; assay type: biochemical; conditions: POPC/chol liposomes, pH 5
B6SJL mice, lungs [5] = assay: In vivo gene transfer after intravenous injection, luciferase activity in the lungs; conditions: 3 days after injection

With GLFKALLKLLKSLWKLLLKA the DNA complexed (plasmid pTG11236; 1 μg peptide (0.35 nmol), 3 μg pTG11236) was 50%, the “amount of peptide giving retardation of plasmid” value (plasmid pTG11236; 3 μg plasmid DNA pTG11236 (0,8 pmol)) was 4 µg and the membrane disruption ([1]; pH 5) was “capable of causing membrane disruption”. The membrane disruption ([1]; pH 7) was “capable of causing membrane disruption”, the “liposome leakage activity” value ([2]; POPC/Chol (3:2) liposomes, pH not separated (compared at pH 5 and pH 7)) was “destabilizes efficiently” and the “liposome leakage activity / calcein release” value ([2]; POPC/chol liposomes, pH 7) was “efficiently liberate calcein”. For the same sequence, the “liposome leakage of peptide/plasmid pTG11236 complexes” value ([2]; charge ratios (P/N) of 1 or 0.8, pH 7) was “slightly reduced”, the “liposome leakage of peptide/plasmid pTG11236 complexes” value ([2]; excess of peptide, P/N 5 or 10, pH 7) was “comparable to free ppTG1” and the “improvement of the transfection efficiency of pcTG90/DOPE” value (HeLa cells; 50 ng plasmid, final charge ratio 3, 5 and 10, ppTG1 contributing 1/3, 1/5 and 1/10 of the positive charge) was “at least 1 log”. For the same sequence, the “improvement of the transfection efficiency of pcTG90/DOPE” value (HeLa cells; 50 ng plasmid, final charge ratio 5 and 10, ppTG1 contributing 2/3 and 7/10 of the positive charge) was 2 log, the “transfection, peptide alone” value (HeLa cells; 50 ng plasmid, final charge ratio of 3) was “better results than pcTG90/DOPE alone” and the “comparison as transfection reagent” value (HeLa cells; 0.5 μg or 0.05 μg pTG11236) was “better transfection reagent than JTS-1-K13”. The luciferase activities (HeLa cells; 0.5 μg or 0.05 μg pTG11236 with 1.17 μg or 0.117 μg peptide, charge ratio 1.8) was “comparable luciferase activities as observed for DNA formulated with Lipofectin”, the “more efficient than the complex comprising KALA” value (HeLa cells; HeLa cells, in the best case) was 3000 fold and the “more efficient in gene transfer than KALA” value (CHO cells; 50 ng pTG11236) was 68 fold. The “more efficient in gene transfer than KALA” value (CHO cells; 500 ng pTG11236) was 9 fold, the “more efficient than the complex comprising KALA” value (CHO cells; CHO cells, in the best case) was 2500 fold and the “re-administration of peptide/plasmid complexes” value (B6SJL mice, lungs [3]; at day 3 after the first injection) was “refractory”. The “re-administration of peptide/plasmid complexes” value (B6SJL mice, lungs [3]; at day 14 after the first injection) was “re-appearance of reporter gene expression”, the “mice with gene expression in the lung” value (B6SJL mice, lungs [3]; complexes of pTG11236 and peptide, intravenous, day 1) was 5 out of 5 and the “gene transfer efficiency in the lung” value (B6SJL mice, lungs [3]; pTG11236/peptide complexes intravenously injected, luciferase day 1) was “at least comparable to gene transfer with the optimized lipoplexes; also recorded: comparable to those obtained with the lipoplexes; also recorded: better than with JTS-1-K13”. The “improvement of gene expression by presence of peptide in complexes comprising cationic lipids” value (B6SJL mice, lungs [3]; pcTG90/DOPE 1:2 complexes, intravenous, lung, day 1) was 10 factor, the “liposome leakage activity / calcein release” value [4] was “efficiently liberate calcein” and the “gene expression over time” value (B6SJL mice, lungs [5]) was “background levels”.
